Test results: US20260216164A1, “INDOLE COMPOUND DECOMPOSING IKZF2, AND USE THEREOF” (KOREA RESEARCH INSTITUTE OF CHEMICAL TECHNOLOGY, priority 2023, published 2026)

Experiments:
[1] = target: Helios (IKZF2) (Homo sapiens, UniProt Q96SW2+Q9UKS7); assay: Screening of Helios protein degraders using Nano-Glo HiBiT cell line (HiBiT-IKZF2); format: cell-based; details: for remaining activity at 10 µM: compound 10 μM, read-out: HiBiT-IKZF2 Residual amount of Helios (%) 10 μM; for remaining activity at 10 µM / remaining activity at 1 µM: 6 hours, HiBiT-Helios knock-in Jurkat cells; for remaining activity at 1 µM: compound 1 μM, read-out: HiBiT-IKZF2 Residual amount of Helios (%) 1 μM
[2] = target: IKZF2 (Helios) (Homo sapiens, UniProt Q96SW2+Q9UKS7); assay: Screening of DC50 (nM) and Dmax (%) using WB-IKZF2 cell line (Western blot); format: cell-based; parameters: endogenous in cells; details: 6 hours; for DC50: class symbols, read-out: WB-IKZF2 DC 50
Method: Experimental Example 2. Screening of DC50 (nM) and Dmax (%) Using WB-IKZF2 Cell Line
Candidate degraders were serially diluted and treated in cells cultured in complete medium, followed by incubation for 6 hours at 37° C. in a CO2 incubator. After 6 hours, the cells were harvested and lysed in RIPA buffer (150 mM NaCl, 1% Triton X-100, 1% sodium deoxycholate, 0.1% SDS, 50 mM Tris-HCl pH 7.5, and 2 mM EDTA) containing a protease inhibitor cocktail (Roche). The mixture was vortexed every 10 minutes and incubated on ice for 30 minutes, followed by centrifugation at 13,000 rpm for 10 minutes at 4° C. to isolate proteins. The isolated proteins were quantified using the Bradford assay (Bio-Rad, 5000006). Proteins were separated on 8% SDS-polyacrylamide gel, transferred onto nitrocellulose membranes (Amersham, 10600002), and incubated with primary antibodies at 4° C. for 18 hours. The following primary antibodies were used: anti-Helios rabbit monoclonal antibody (Cell Signaling, 42427, 1:3000) and anti-β-actin mouse monoclonal antibody (Santa Cruz, sc-47778, 1:5000). β-actin was used as a loading control. The next day, the membranes were washed with 1×TBST for 30 minutes and incubated with HRP-conjugated secondary antibodies corresponding to the primary antibodies at room temperature for 1 hour. The following secondary antibodies were used: anti-mouse IgG HRP-linked antibody (Sigma, A9044, 1:5000) and anti-rabbit IgG HRP-linked antibody (Cell Signaling, 7074, 1:5000). After washing with 1×TBST for 30 minutes, protein expression was visualized using the Pierce ECL Western blotting substrate (Thermo Fisher, 32106), and images were captured using a chemiluminescence image analysis system (GE Healthcare, AI680). The obtained images were quantified using the ImageJ software.

Helios (IKZF2), sequence (Q9UKS7 whole entry): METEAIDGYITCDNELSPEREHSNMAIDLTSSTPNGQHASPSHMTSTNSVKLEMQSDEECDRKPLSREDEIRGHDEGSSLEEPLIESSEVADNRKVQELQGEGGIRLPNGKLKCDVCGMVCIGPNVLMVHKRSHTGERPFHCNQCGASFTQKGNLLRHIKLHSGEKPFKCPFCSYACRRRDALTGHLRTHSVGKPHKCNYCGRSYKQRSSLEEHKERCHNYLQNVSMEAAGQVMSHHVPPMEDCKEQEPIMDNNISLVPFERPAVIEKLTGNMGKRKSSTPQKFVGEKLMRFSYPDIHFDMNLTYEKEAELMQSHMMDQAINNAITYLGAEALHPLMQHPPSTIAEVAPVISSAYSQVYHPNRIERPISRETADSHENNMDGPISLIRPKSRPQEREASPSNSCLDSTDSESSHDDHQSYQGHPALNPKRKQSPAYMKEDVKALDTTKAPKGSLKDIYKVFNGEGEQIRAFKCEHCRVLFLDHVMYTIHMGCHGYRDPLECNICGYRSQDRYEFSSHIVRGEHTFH
Helios (IKZF2), sequence (Q96SW2 whole entry): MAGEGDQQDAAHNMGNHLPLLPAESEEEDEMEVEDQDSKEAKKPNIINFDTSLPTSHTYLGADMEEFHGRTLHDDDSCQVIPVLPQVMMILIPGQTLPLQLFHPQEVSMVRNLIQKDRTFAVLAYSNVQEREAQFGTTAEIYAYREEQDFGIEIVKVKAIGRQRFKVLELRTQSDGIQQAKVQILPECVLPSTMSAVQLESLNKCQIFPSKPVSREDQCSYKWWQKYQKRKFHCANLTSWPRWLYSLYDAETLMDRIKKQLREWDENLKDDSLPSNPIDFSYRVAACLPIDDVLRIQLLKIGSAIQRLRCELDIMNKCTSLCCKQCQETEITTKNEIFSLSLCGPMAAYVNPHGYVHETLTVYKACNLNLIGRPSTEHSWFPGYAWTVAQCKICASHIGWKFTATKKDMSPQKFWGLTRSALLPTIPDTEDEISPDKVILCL
Helios (IKZF2), sequence (Q16531 whole entry partner): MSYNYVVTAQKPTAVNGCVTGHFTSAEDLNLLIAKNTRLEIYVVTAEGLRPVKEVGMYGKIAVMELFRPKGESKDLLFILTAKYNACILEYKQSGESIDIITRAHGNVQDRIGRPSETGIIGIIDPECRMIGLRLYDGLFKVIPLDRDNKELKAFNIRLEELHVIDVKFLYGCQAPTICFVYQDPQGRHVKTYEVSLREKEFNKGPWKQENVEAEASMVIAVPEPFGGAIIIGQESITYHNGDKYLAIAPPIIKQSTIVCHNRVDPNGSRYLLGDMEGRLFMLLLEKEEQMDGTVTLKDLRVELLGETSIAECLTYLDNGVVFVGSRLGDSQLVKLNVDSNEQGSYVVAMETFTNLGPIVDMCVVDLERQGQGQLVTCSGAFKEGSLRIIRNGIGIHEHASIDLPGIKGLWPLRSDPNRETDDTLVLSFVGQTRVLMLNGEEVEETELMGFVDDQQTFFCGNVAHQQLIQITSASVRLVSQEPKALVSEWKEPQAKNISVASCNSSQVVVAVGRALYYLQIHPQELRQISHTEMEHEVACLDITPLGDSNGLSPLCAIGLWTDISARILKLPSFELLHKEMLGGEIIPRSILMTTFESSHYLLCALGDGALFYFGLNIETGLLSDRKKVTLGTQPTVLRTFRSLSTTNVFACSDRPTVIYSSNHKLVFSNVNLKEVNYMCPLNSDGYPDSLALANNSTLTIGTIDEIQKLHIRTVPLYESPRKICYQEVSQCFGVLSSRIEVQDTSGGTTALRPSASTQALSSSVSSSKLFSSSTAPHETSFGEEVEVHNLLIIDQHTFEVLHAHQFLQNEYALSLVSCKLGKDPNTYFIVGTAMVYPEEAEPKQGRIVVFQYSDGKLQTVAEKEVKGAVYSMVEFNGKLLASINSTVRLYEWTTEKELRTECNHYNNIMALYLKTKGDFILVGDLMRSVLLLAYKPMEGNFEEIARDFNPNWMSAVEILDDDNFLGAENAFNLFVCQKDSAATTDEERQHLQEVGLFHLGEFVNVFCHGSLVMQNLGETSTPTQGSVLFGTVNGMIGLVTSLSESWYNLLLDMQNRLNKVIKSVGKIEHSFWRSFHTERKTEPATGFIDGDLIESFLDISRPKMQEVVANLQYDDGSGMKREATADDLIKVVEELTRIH
IKZF2 (Helios), sequence (Q9UKS7 whole entry): as the sequence (Q9UKS7 whole entry) above
IKZF2 (Helios), sequence (Q96SW2 whole entry): as the sequence (Q96SW2 whole entry) above
IKZF2 (Helios), sequence (Q16531 whole entry partner): as the sequence (Q16531 whole entry partner) above

SMILES	remaining activity at 10 µM [1] [%]	DC50 [2] [nM]	Dmax [2] [%]	IKZF2 degradation activity (in words, comment on Table 1) ([1]; as shown in Table 1)	remaining activity at 1 µM [1] [%]
Cc1c(C(=O)N2CCC(c3ccc4c(c3)C(=O)N(C3CCC(=O)NC3=O)C4=O)CC2)[nH]c2cc([N+](=O)[O-])ccc12 (centres unmarked) [Compound 95, 2-(2,6-dioxopiperidin-3-yl)-5-(1-(3-methyl-6-nitro-1H-indole-2-carbonyl)piperidin-4-yl)isoindoline-1,3-dione]	10.9	10 to 100			
Cc1c(C(=O)N2CCC(c3ccc4c(c3F)CN(C3CCC(=O)NC3=O)C4=O)CC2)[nH]c2cc([N+](=O)[O-])ccc12 (centres unmarked) [Compound 94, 3-(4-fluoro-5-(1-(3-methyl-6-nitro-1H-indole-2-carbonyl)piperidin-4-yl)-1-oxoinsoindolin-2-yl)piperidine-2,6-dione]	8.5	< 10	100		
Cc1c(C(=O)N2C3CCC2CC(c2ccc4c(c2)CN(C2CCC(=O)NC2=O)C4=O)C3)[nH]c2cc(Cl)ccc12 (centres unmarked) [Compound 58, 3-(5-(8-(6-chloro-3-methyl-1H-indole-2-carbonyl)-8-azabicyclo[3.2.1]octan-3-yl)-1-oxoinsoindolin-2-yl)piperidine-2,6-dione]	5.2	10 to 100		excellent IKZF2 degradation activity	
COc1cc2c(C)c(C(=O)N3CCC(c4ccc5c(c4F)CN(C4CCC(=O)NC4=O)C5=O)CC3)[nH]c2cc1Cl (centres unmarked) [Compound 108, 3-(5-(1-(6-chloro-5-methoxy-3-methyl-1H-indole-2-carbonyl)piperidin-4-yl)-4-fluoro-1-oxoinsoindolin-2-yl)piperidine-2,6-dione]	7.5	< 10	100		8.3
CCNC(=O)Nc1ccc2c(C)c(C(=O)N3CCC(c4ccc5c(c4)CN(C4CCC(=O)NC4=O)C5=O)CC3)[nH]c2c1 (centres unmarked) [Compound 75, 1-(2-(4-(2-(2,6-dioxopiperidin-3-yl)-1-oxoindolin-5-yl)piperidine-1-carbonyl)-3-methyl-1H-indol-6-yl)-3-ethylurea]	19	100 to 1000			29.6
Cc1c(C(=O)N2CCC(c3ccc4c(c3)CN(C3CCC(=O)NC3=O)C4=O)CC2)[nH]c2cc(Br)ccc12 (centres unmarked) [Compound 49, 3-(5-(1-(6-bromo-3-methyl-1H-indole-2-carbonyl)piperidin-4-yl)-1-oxoinsoindolin-2-yl)piperidine-2,6-dione]	8.67	100 to 1000			
Cc1c(C(=O)N2CCC(O)(c3ccc4c(c3)CN(C3CCC(=O)NC3=O)C4=O)CC2)[nH]c2cc(Cl)ccc12 (centres unmarked) [Compound 64, 3-(5-(1-(6-chloro-3-methyl-1H-indole-2-carbonyl)-4-hydroxypiperidin-4-yl)-1-oxoinsoindolin-2-yl)piperidine-2,6-dione]	8.1	10 to 100			
Cc1c(C(=O)N2CCC(c3ccc4c(c3)CN(C3CCC(=O)NC3=O)C4=O)CC2)[nH]c2cc([N+](=O)[O-])ccc12 (centres unmarked) [Compound 55, 3-(5-(1-(3-methyl-6-nitro-1H-indole-2-carbonyl)piperidin-4-yl)-1-oxoinsoindolin-2-yl)piperidine-2,6-dione]	5.1	< 10	100		
Cc1c(C(=O)N2CCC(c3ccc4c(c3)CN(C3CCC(=O)NC3=O)C4=O)CC2)[nH]c2cc(OC(F)(F)F)ccc12 (centres unmarked) [Compound 53, 3-(5-(1-(3-methyl-6-(trifluoromethoxy)-1H-indole-2-carbonyl)piperidin-4-yl)-1-oxoinsoindolin-2-yl)piperidine-2,6-dione]	7.7	100 to 1000			
Cc1c(C(=O)N2CCC(c3ccc4c(c3)CN(C3CCC(=O)NC3=O)C4=O)CC2C)[nH]c2cc(Cl)ccc12 (centres unmarked) [Compound 60, 3-(5-(1-(6-chloro-3-methyl-1H-indole-2-carbonyl)-2-methylpiperidin-4-yl)-1-oxoinsoindolin-2-yl)piperidine-2,6-dione]	5.4	10 to 100			
Cc1c(C(=O)N2CCC(c3ccc4c(c3)CN(C3CCC(=O)NC3=O)C4=O)CC2)[nH]c2cc(Cl)c(O)cc12 (centres unmarked) [Compound 101, 3-(5-(1-(6-chloro-5-hydroxy-3-methyl-1H-indole-2-carbonyl)piperidin-4-yl)-1-oxoinsoindolin-2-yl)piperidine-2,6-dione]	20.7	10 to 100	100		15.7
COc1cc2c(C)c(C(=O)N3CCC(c4ccc5c(c4)CN(C4CCC(=O)NC4=O)C5=O)CC3)[nH]c2cc1Cl (centres unmarked) [Compound 71, 3-(5-(1-(6-chloro-5-methoxy-3-methyl-1H-indole-2-carbonyl)piperidin-4-yl)-1-oxoinsoindolin-2-yl)piperidine-2,6-dione]	25.3	< 10	100		14.2
Cc1c(C(=O)N2CCC(c3ccc4c(c3)CN(C3CCC(=O)NC3=O)C4=O)CC2)[nH]c2cc(O)ccc12 (centres unmarked) [Compound 47, 3-(5-(1-(6-hydroxy-3-methyl-1H-indole-2-carbonyl)piperidin-4-yl)-1-oxoinsoindolin-2-yl)piperidine-2,6-dione]	24	100 to 1000			27.9
Cc1c(C(=O)N2CCC(c3ccc4c(c3)CN(C3CCC(=O)NC3=O)C4=O)CC2)[nH]c2cc([N+](=O)[O-])c(O)cc12 (centres unmarked) [Compound 86, 3-(5-(1-(5-hydroxy-3-methyl-6-nitro-1H-indole-2-carbonyl)piperidin-4-yl)-1-oxoinsoindolin-2-yl)piperidine-2,6-dione]	9.9	10 to 100			
Cc1c(C(=O)N2CCC(c3ccc4c(c3)CN(C3CCC(=O)NC3=O)C4=O)CC2)[nH]c2cc(C(F)(F)F)ccc12 (centres unmarked) [Compound 48, 3-(5-(1-(3-methyl-6-(trifluoromethyl)-1H-indole-2-carbonyl)piperidin-4-yl)-1-oxoinsoindolin-2-yl)piperidine-2,6-dione]	8.21	10 to 100			
Cc1c(C(=O)N2CCC(c3cc4c(cc3F)C(=O)N(C3CCC(=O)NC3=O)C4)CC2)[nH]c2cc([N+](=O)[O-])ccc12 (centres unmarked) [Compound 93, 3-(6-fluoro-5-(1-(3-methyl-6-nitro-1H-indole-2-carbonyl)piperidin-4-yl)-1-oxoinsoindolin-2-yl)piperidine-2,6-dione]	26.5	< 10	100		
Cc1c(C(=O)N2CCC(c3ccc4c(c3F)CN(C3CCC(=O)NC3=O)C4=O)CC2)[nH]c2cc(Cl)c(C#N)cc12 (centres unmarked) [Compound 119, 6-chloro-2-(4-(2-(2,6-dioxopiperidin-3-yl)-4-fluoro-1-oxoindolin-5-yl)piperidine-1-carbonyl)-3-methyl-1H-indole-5-carbonitrile]		10 to 100	92		
Cc1c(C(=O)N2CCC(c3cc4c(cc3F)C(=O)N(C3CCC(=O)NC3=O)C4)CC2)[nH]c2cc(Cl)ccc12 (centres unmarked) [Compound 90, 3-(5-(1-(6-chloro-3-methyl-1H-indole-2-carbonyl)piperidin-4-yl)-6-fluoro-1-oxoinsoindolin-2-yl)piperidine-2,6-dione]	6.2	< 10	100		
Cc1c(C(=O)N2CCC(c3ccc4c(c3)CN(C3CCC(=O)NC3=O)C4=O)CC2)[nH]c2cc([N+](=O)[O-])c(Cl)cc12 (centres unmarked) [Compound 84, 3-(5-(1-(5-chloro-3-methyl-6-nitro-1H-indole-2-carbonyl)piperidin-4-yl)-1-oxoinsoindolin-2-yl)piperidine-2,6-dione]	9.7	100 to 1000			
Cc1c(C(=O)N2CCC(c3ccc4c(c3)CN(C3CCC(=O)NC3=O)C4=O)CC2)[nH]c2cc(Cl)c(F)cc12 (centres unmarked) [Compound 102, 3-(5-(1-(6-chloro-5-fluoro-3-methyl-1H-indole-2-carbonyl)piperidin-4-yl)-1-oxoinsoindolin-2-yl)piperidine-2,6-dione]	26.2	< 10	100		21.8
Cc1c(C(=O)N2CCC(c3cc4c(cc3F)C(=O)N(C3CCC(=O)NC3=O)C4)CC2)[nH]c2cc(Cl)c(F)cc12 (centres unmarked) [Compound 112, 3-(5-(1-(6-chloro-5-fluoro-3-methyl-1H-indole-2-carbonyl)piperidin-4-yl)-6-fluoro-1-oxoinsoindolin-2-yl)piperidine-2,6-dione]		10 to 100	98		23
Cc1c(C(=O)N2CCC(c3ccc4c(c3F)CN(C3CCC(=O)NC3=O)C4=O)CC2)[nH]c2cc(C#N)c(F)cc12 (centres unmarked) [Compound 120, 2-(4-(2-(2,6-dioxopiperidin-3-yl)-4-fluoro-1-oxoindolin-5-yl)piperidine-1-carbonyl)-5-fluoro-3-methyl-1H-indole-6-carbonitrile]		10 to 100			
